Converted amounts (≈) assume the structure as drawn. Like-named read-outs stand apart in the source and are kept apart here.

The data set can be described thus: Solubility of the crystalline forms in methylcyclohexane (Mullin method). Format: physicochemical. Conditions: for Solubility Concentration / solubility: at equilibrium; for Thermodynamic stability compared with form I: inferred from the lower solubility in methylcyclohexane, 10 °C to 70 °C; for solubility: methylcyclohexane, organic solvent or mixture, thermodynamic from solid, read-out: Solubility Concentration. As for the experimental part:
The solubility of the 2 crystalline forms of rimonabant in the same solvent was also measured. The method used is described in Measurement of Solubility in J. W. Mullin. Crystallization: 3rd edition, Ipswich (GB): Butterworth-Heinemann, 1993, p. 105.
The measurements were carried out for each of the crystalline forms, in solution in methylcyclohexane at temperatures varying from 10° C. to 70° C. At equilibrium, for each temperature, the undissolved crystalline form is characterized by infrared spectrography, in particular by its main bands.

For `Cc1c(C(=O)NN2CCCCC2)nn(-c2ccc(Cl)cc2Cl)c1-c1ccc(Cl)cc1` [Form II, N-piperidino-5-(4-chlorophenyl)-1-(2,4-dichlorophenyl)-4-methyl-3-pyrazolecarboxamide], the “Solubility Concentration” value reads like this: (in methylcyclohexane, 10.00 °C) 4.50 mg/mL (≈ 9.7 mM); (in methylcyclohexane, 20.00 °C) 6.60 mg/mL (≈ 14.2 mM); (in methylcyclohexane, 30.00 °C) 9.20 mg/mL (≈ 19.8 mM); (in methylcyclohexane, 40.00 °C) 12.60 mg/mL (≈ 27.2 mM); (in methylcyclohexane, 50.00 °C) 19.00 mg/mL (≈ 41 mM); (in methylcyclohexane, 60.00 °C) 29.20 mg/mL (≈ 63 mM). Also, the “Solubility Concentration” value (in methylcyclohexane, 70.00 °C) was determined as 42.00 mg/mL (≈ 90.6 mM). Also, the “Solubility compared with form I” value (in methylcyclohexane, all temperatures between 10 °C and 70 °C) is on record as “less soluble”. Further, the “Thermodynamic stability compared with form I” value was “stability greater than that of form I” (listed as crystalline form II of rimonabant) and “thermodynamically more stable than rimonabant form I” (listed as rimonabant form II).
With `Cc1c(C(=O)NN2CCCCC2)nn(-c2ccc(Cl)cc2Cl)c1-c1ccc(Cl)cc1` [Form I, N-Piperidino-5-(4-chlorophenyl)-1-(2,4-dichlorophenyl)-4-methyl-3-pyrazolecarboxamide, reference compound], the solubility is, setting by setting: (10 °C, in methylcyclohexane, 10.00 °C) 4.86 mg/mL (≈ 10.5 mM); (20 °C, in methylcyclohexane, 20.00 °C) 6.92 mg/mL (≈ 14.9 mM); (30 °C, in methylcyclohexane, 30.00 °C) 9.3 mg/mL (≈ 20.1 mM); (40 °C, in methylcyclohexane, 40.00 °C) 13.7 mg/mL (≈ 29.5 mM); (50 °C, in methylcyclohexane, 50.00 °C) 20.4 mg/mL (≈ 44 mM); (60 °C, in methylcyclohexane, 60.00 °C) 31.2 mg/mL (≈ 67.3 mM). Where the note is “70 °C, in methylcyclohexane, 70.00 °C”, the solubility stood at 52.4 mg/mL (≈ 113 mM).

These data come from US20100190827A1, “POLYMORPHIC FORM OF RIMONABANT, METHOD FOR PREPARING IT AND PHARMACEUTICAL COMPOSITIONS CONTAINING IT” (SANOFI-AVENTIS, priority 2001, published 2010).
